Laboratory results published in US20200383627A1, “TECHNIQUES FOR TREATMENT OF EPILEPTIC DISORDERS USING ELECTROPHYSIOLOGICAL BIOMARKERS AND RELATED SYSTEMS AND METHODS” (Children's Medical Center Corporation, priority 2017, published 2020).

Key:
Format in all cases: in vivo, human
[1] = system: patients with infantile spasms (IS); test: EEG pattern (hypsarrhythmia) at follow-up assessment after ACTH treatment
Description: The presence of hypsarrhythmia is often used as a diagnostic criteria for IS, and is characterized by an abnormal interictal pattern consisting of high amplitude and irregular waves and spikes in a background of chaotic and disorganized activity within the EEG signals.
At baseline, 54 (36%) had hypsarrhythmia pattern, 75 (50%) had modified hypsarrhythmia pattern, and 21 (14%) had other abnormalities (without hypsarrhythmia) (Table 1). At the follow-up assessment, 58 patients with good response had abnormal EEG findings (abnormalities other than hypsarrhythmia, such as multifocal spikes or sharp waves, abnormal slow wave and fast activity). In terms of the EEG pattern, there was no difference between poor- and good responders, and between the patients who relapsed and the sustained responders (Tables 2-3).
(§1) Different criteria have been utilized to determine response to treatment in previous studies. Our EEG responder criteria are consistent with the criteria used in several previous studies, comprising IS freedom for at least seven consecutive days during treatment, and disappearance of hypsarrhythmia on follow-up EEG assessment. Although the presence of hypsarrhythmia has been considered crucial for the diagnosis and evaluating treatment response in IS, hypsarrhythmia may not be present at diagnosis in 25% of cases. Lack of hypsarrhythmia may be seen in patients with prior AED treatment, the early phase of IS, and late onset of spasms. […] Our findings highlight the importance of new quantitive biomarkers for evaluating EEGs in IS.

[2] = system: patients with infantile spasms (IS); test: Quantitative EEG analysis (manual/automatic spike count, delta power) before and after ACTH treatment; settings: for Delta Power Change / Spike Count (Automatic) Change / Spike Count (Manual) Change / Delta Power Follow-up / Spike Count (Manual) Follow-up / Spike Count (Automatic) Follow-up: median
Method: In act 602, EEG data of a subject is obtained in any manner described above in relation to act 102 of FIG. 1. In act 604, a power spectral density (PSD) of at least part of the EEG data is calculated. The PSD, as discussed above, provides information on the amount of power present in various frequency components of the EEG signal(s). As one non-limiting example, a Fast Fourier Transform (FFT) of one or more EEG signals may be performed to determine the PSD of the EEG signals. Suitable parameters of the FFT operation may include a time constant of 0.16 seconds, a sampling rate of 64 Hz, and/or an FFT window duration of 2 seconds. In some embodiments, a high-pass, low-pass and/or band-pass filter may be applied to EEG signals prior to generation of a PSD. For instance, frequencies above 35 Hz may be filtered from the EEG signals and a PSD generated based on the resulting filtered EEG signals. It will be appreciated that, because an FFT operates on a window of time of the EEG signal(s), a number of PSDs may be calculated for a number of (overlapping or non-overlapping) windows of time of the EEG signal(s). As a result, act 604 may be performed numerous times.
In act 606, a delta power is calculated based on a PSD calculated in act 604. In cases where a number of PSDs are calculated in act 604, a number of delta powers may be calculated in act 606 by calculating a delta power for each PSD. In some cases, the delta power may vary over time within the EEG signals obtained from a subject in a single session. In these cases, it may be preferable to obtain a single average value of the delta power from the EEG signals by, for instance, calculating the mean of the calculated delta power. Delta power may be calculated by determining the total spectral power present within the calculated PSD data between the frequency bounds of the delta band (e.g., 0.5 Hz to 4 Hz). In some cases, the delta power may be calculated by determining a total area under the PSD curve within the delta band's frequency range.
In act 702, EEG data of a subject is obtained in any manner described above in relation to act 102 of FIG. 1. In act 704, a plurality of wavelet coefficients may be calculated based on the EEG data obtained in act 702. As discussed above, wavelet analysis may represent a particularly desirable approach to identifying spikes due to the natural ability of wavelets to identify rapid changes in a signal's amplitude. Act 704 may comprise any suitable approach to determining wavelet coefficients, including a continuous wavelet transform (CWT), a discrete wavelet transform (DWT) and/or a stationary wavelet transform (SWT). In some embodiments, an SWT analysis may be preferable because the results are invariant with respect to time shifts, although a greater redundancy in data may be produced compared with a DWT analysis, for example. Any suitable wavelet family may be utilized during act 704, including haar, daubechies, biorthogonal, coiflets and/or symlets (e.g., symlet4).
In act 706, spikes are identified from the wavelet coefficients determined in act 704. Act 706 may comprise identifying a number of instances in which the wavelet coefficients have values above or below a suitable threshold that represents an incidence of a spike, to produce a spike count. A spike frequency may be determined by dividing the spike count by the total amount of time represented by the EEG data.
Fifty out of these 150 patients had original EEG data available for analysis met criteria for the comparison of baseline and follow-up electrophysiological evaluation.
The magnitude of changes in the EEG parameters (spike quantification and slow wave activity) were more prominent in patients responders as compared to non-responders (MSC diff: 169 vs.44 spikes; p<0.001, ASCA diff: 157 vs.55 spikes; p<0.001, DP diff: 11.3 vs.2.3, Sf diff: 158 vs. 60; p<0.05 respectively in responders vs. non-responders, Table 5).

[3] = system: patients with infantile spasms (IS); test: Clinical outcome assessment of ACTH treatment (spasms frequency, response, relapse); set-up: Sf diff (spasms frequency, baseline minus follow-up) / Seizure frequency, Follow-up / Spasms frequency Follow-up / Spasms frequency Change: unit not given here; settings: for Spasms frequency Change / Spasms frequency Follow-up: median
Description: One-hundred-fifty (83 males; 55%) out of 170 patients were included for the clinical outcome assessment study. Mean age of spasms onset was 6.6 (±3.4) months. The mean time to treatment and follow-up duration were 39 (±50) and 38 (±49) days, respectively. Fifty-one out of 150 (34%) of patients had abnormal MRI findings.
The etiology of IS was: genetic/inborn metabolic in 28 (19%), unknown in 71 (47%), and structural brain abnormality (acquired and congenital) in 51 (34%). […] During the ACTH treatment, 86 (57%) patients were receiving concomitant ASMs (Table 1).
One hundred-one of 150 patients (67%) were deemed responders to the ACTH treatment at follow-up assessment, with IS cessation and resolution of hypsarrhythmia (Table 2). Thirty out of 101 initial responders (30%) experienced a relapse. Clinical parameters such as age of onset, sex, MRI finding, previous seizure history, previous and concomitant AED treatment, etiology, and baseline EEG were not prognostic factors for response and relapse (Tables 2-3).
as §1

[4] = Patients without Relapse (n: 20)
[5] = patients with sustained response
[6] = percentage of 101 initial responders

Adrenocorticotropic hormone (SYSMEHFRWGKPVGKKRRPVKVYPNGAEDESAEAFPLEF; Corticotropin; UniProt P01189 138-176, looked up) [ACTH, polypeptide tropic hormone produced by and secreted by the anterior pituitary gland; used to treat infantile spasms]
Follow-up EEG features: Normal EEG, number of patients ([1]; n: 150): 44 | Follow-up EEG features: Without Hypsarrhythmia, number of patients ([1]; n: 150, baseline 21): 94 | Follow-up EEG features: Hypsarrhythmia, number of patients ([1]; n: 150, baseline 54): 6 | Follow-up EEG features: Modified Hypsarrhythmia, number of patients ([1]; n: 150, baseline 75): 6 | Follow-up EEG features: Normal EEG, share of patients ([1]; percentage of n: 150): (29.3) | Follow-up EEG features: Without Hypsarrhythmia, share of patients ([1]; percentage of n: 150, baseline (14)): (62.7) | Follow-up EEG features: Hypsarrhythmia, share of patients ([1]; percentage of n: 150, baseline (36)): (4) | Follow-up EEG features: Modified Hypsarrhythmia, share of patients ([1]; percentage of n: 150, baseline (50)): (4) | Delta Power Change ([2]; Good responder (n: 31)): 10.2 | Spike Count (Automatic) Change ([2]; Good responder (n: 31)): 144 | Spike Count (Manual) Change ([2]; Good responder (n: 31)): 153 | Delta Power Follow-up ([2]; Good responder (n: 31), baseline 24.7): 13.4 | Spike Count (Manual) Follow-up ([2]; Good responder (n: 31), baseline 232): 48 | Spike Count (Automatic) Follow-up ([2]; Good responder (n: 31), baseline 244): 53 | Delta Power Change ([2]; Patients with Relapse (n: 11)): 6 | Spike Count (Automatic) Change ([2]; Patients with Relapse (n: 11)): 50 | Spike Count (Manual) Change ([2]; Patients with Relapse (n: 11)): 51 | Delta Power Follow-up ([2]; Patients with Relapse (n: 11), baseline 23.6): 17.1 | Spike Count (Manual) Follow-up ([2]; Patients with Relapse (n: 11), baseline 187): 86 | Spike Count (Automatic) Follow-up ([2]; Patients with Relapse (n: 11), baseline 197): 117 | Delta Power Change [2, 4]: 14.6 | Spike Count (Automatic) Change [2, 4]: 176 | Spike Count (Manual) Change [2, 4]: 212 | Delta Power Follow-up ([2]; Patients without Relapse (n: 20), baseline 26.4): 10.5 | Spike Count (Manual) Follow-up ([2]; Patients without Relapse (n: 20), baseline 247): 10 | Spike Count (Automatic) Follow-up ([2]; Patients without Relapse (n: 20), baseline 257): 28.5 | Delta Power Change ([2]; Poor responder (n: 19)): 3.1 | Spike Count (Automatic) Change ([2]; Poor responder (n: 19)): 47 | Spike Count (Manual) Change ([2]; Poor responder (n: 19)): 52 | Delta Power Follow-up ([2]; Poor responder (n: 19), baseline 21.7): 19.5 | Spike Count (Automatic) Follow-up ([2]; Poor responder (n: 19), baseline 236): 152 | Spike Count (Manual) Follow-up ([2]; Poor responder (n: 19), baseline 242): 168 | DP (delta power) at follow-up EEG ([2]; n: 50, baseline 25.1, p<0.001): 17.2 μV | Delta Power, Follow-up EEG ([2]; n: 50, mean, baseline 25.1): 17.2 | Spike Count Automatic, Follow-up EEG ([2]; n: 50, mean, baseline 232): 113 | Spike Count Manual, Follow-up EEG ([2]; n: 50, mean, baseline 234): 112 | ASCA diff (automatic spike count, baseline minus follow-up) ([2]; patients who relapsed): 75 | DP diff (delta power, baseline minus follow-up) ([2]; patients who relapsed): 5.4 | MSC diff (manual spike count, baseline minus follow-up) ([2]; patients who relapsed): 76 | ASCA diff (automatic spike count, baseline minus follow-up) [2, 5]: 202 | DP diff (delta power, baseline minus follow-up) [2, 5]: 14.6 | MSC diff (manual spike count, baseline minus follow-up) [2, 5]: 220 | ASCA diff (automatic spike count, baseline minus follow-up) ([2]; responders): 157 spikes | DP diff (delta power, baseline minus follow-up) ([2]; responders): 11.3 | MSC diff (manual spike count, baseline minus follow-up) ([2]; responders): 169 spikes | relapse rate among initial responders ([3]; 30 of 101 initial responders): 30% | response rate (responders to the ACTH treatment at follow-up: IS cessation and resolution of hypsarrhythmia) ([3]; 101 of 150 patients, follow-up after day 14 of treatment): 67% | Spasms frequency follow up/week ([3]; Good Response (n): 101, baseline 318): 80 /week | Spasms frequency Change ([3]; Good responder (n: 31)): 84 | Spasms frequency Follow-up ([3]; Good responder (n: 31), baseline 122): 0 | Spasms frequency Change ([3]; Patients with Relapse (n: 11)): 11 | Spasms frequency Follow-up ([3]; Patients with Relapse (n: 11), baseline 140): 42 | Spasms frequency Change [3, 4]: 117 | Spasms frequency Follow-up ([3]; Patients without Relapse (n: 20), baseline 117): 0 | Spasms frequency follow up/week ([3]; Poor Response (n): 49, baseline 242): 233 /week | Spasms frequency Change ([3]; Poor responder (n: 19)): 43 | Spasms frequency Follow-up ([3]; Poor responder (n: 19), baseline 105): 70 | Spasms frequency follow up/week ([3]; Relapse (n): 30, baseline 311): 270 /week | Spasms frequency follow up/week ([3]; Without Relapse (n): 71, baseline 322): 0 /week | Seizure frequency, Follow-up ([3]; n: 50, mean, baseline 192): 70 | Clinical response No, number of patients ([3]; n: 150): 49 | Clinical response Yes, number of patients ([3]; n: 150, IS cessation and resolution of hypsarrhythmia at follow-up): 101 | spasm frequency after ACTH treatment (median weekly) ([3]; n: 150, before treatment 294, p<0.001): 130 | Follow up spasms frequency ([3]; n: 150, mean (SD), baseline 294/week): 130 /week | Sf diff (spasms frequency, baseline minus follow-up) ([3]; non-responders): 60 | Relapse (if good response exist) No, number of patients ([3]; of 101 initial responders): 71 | Relapse (if good response exist) Yes, number of patients ([3]; of 101 initial responders): 30 | Relapse (if good response exist) No, share of patients [3, 6]: (70.3) | Relapse (if good response exist) Yes, share of patients [3, 6]: (29.7) | Clinical response No, share of patients ([3]; percentage of n: 150): (32.7) | Clinical response Yes, share of patients ([3]; percentage of n: 150): (67.3) | Sf diff (spasms frequency, baseline minus follow-up) ([3]; responders): 158
